# In patent publication US12226410B2, “Methods for enhancing cellular clearance of pathological molecules via activation of the cellular protein ykt6” (NORTHWESTERN UNIVERSITY, priority 2019, dated 2025):
# System: ykt6
# Assay: FTI treatment of wild-type mice: ykt6 membrane distribution and SNARE complexes in cortex
# Assay type: in vivo
# Conditions: daily i.p. 0.9 mg/kg, 14 days
# Protocol: FIGS. 15A, 15B, 15C, 15D, 15E, and 15F. FTI treatment of wild-type mice enhances ykt6 SNARE complexes, lysosomal activity, and reduces a-syn. 15A) Wild-type mice (C57Bl/6) were i.p. injected daily with FTI for 14 days at 0.9 mg/kg and compared to vehicle injected mice. Extracts from the cortex were analyzed for cytosolic (cyt) and membrane (mem) distribution of ykt6 (veh, n=5; FTI, n=6). 15B) Representative gel filtration/western blot analysis of cortical extracts of veh or FTI injected wild-type mice. Inputs are shown on the left. NSE indicates equal column loading. 15C) Quantification of ykt6 and STX5 complexes (ca. 120A) from gel filtration analysis in C (n=4 mice). Fraction 1 corresponds to complexes at 120A, while fractions 7-9 correspond to ykt6 monomers at 22-14 A. 15D) The levels of post ER (endo H resistant) GCase were analyzed by western blot and post ER/ER ratios were quantified from the cortex of FTI treated mice (veh, n=5; FTI, n=6). 15E) GCase activity was assessed in cortical lysates and normalized to total protein (veh, n=4; FTI, n=6). 15F) a-Syn levels were quantified from cytosolic or membrane isolated fractions from the cortex of wild-type FTI treated mice (veh, n=4; FTI, n=6). For all quantifications, values are the mean+/−SEM, *p<0.05.
# Separation of lysates into cytosol and membrane fractions. Cell cultures from either a 10 cm dish (SH-SY5Y) or 6 well (iPSn) were scraped in cold PBS and pelleted by centrifugation at 400×g, 5 min, 4° C. The supernatant was discarded and cell pellets were homogenized in 200-400 ul of cold PBS containing protease inhibitor cocktail mix (1 mM phenylmethanesulfonyl fluoride (PMSF), 50 mM NaF, 2 mM Na orthovanadate, and a protease inhibitor cocktail (Roche diagnostics, http://www.roche.com, #11-836-170-001)) using a Teflon homogenizer in a conical glass vessel for 20-40 times, using a motor driven spindle at 4000 rpm (GlasCol, https://glascol.com/homogenizers). […] Fractions were then analyzed by western blot analysis as described below. The samples were not analyzed in a blinded manner. […]
structure (smiles),measurement,value
C#Cc1cccc(-c2cc(=O)n(C)c3ccc([C@](O)(c4ccc(Cl)cc4)c4cncn4C)cc23)c1 [LNK-754],levels of membrane associated ykt6 and STX5,increase the levels of membrane associated ykt6 and STX5
same,sec22b,no change
same,ykt6 distribution by SEC (monomers vs complexes),shifted its distribution from monomers into high molecular weight complexes
